Assay results reported in paper PMC8237267 (Journal of Medicinal Chemistry, 2021).
Values joined by “and” are separate entries in the source; they are usually repeats but may differ in a detail not shown here. Identical values can stand only once. Like-named read-outs stand apart in the source and are kept apart here.

What was measured:
[1] = molecular target: T1, HDAC3 (Homo sapiens, UniProt O15379); assay: HDAC EMSA activity assay (Nanosyn); assay type: biochemical; conditions: recombinant enzyme, read-out: In vitro IC50 HDAC3
T1 construct: The full-length human HDACs were recombinantly expressed and purified from SF9 insect cells; host or cells: SF9 insect cells

[2] = molecular target: T2, HDAC8 (Homo sapiens, UniProt Q9BY41); assay: HDAC EMSA activity assay (Nanosyn); assay type: biochemical; conditions: for IC50: recombinant enzyme, EMSA (Nanosyn), read-out: In vitro IC50 HDAC8
T2 construct: The full-length human HDACs were recombinantly expressed and purified from SF9 insect cells; host or cells: SF9 insect cells
T2 sequence (Q9BY41 1-377): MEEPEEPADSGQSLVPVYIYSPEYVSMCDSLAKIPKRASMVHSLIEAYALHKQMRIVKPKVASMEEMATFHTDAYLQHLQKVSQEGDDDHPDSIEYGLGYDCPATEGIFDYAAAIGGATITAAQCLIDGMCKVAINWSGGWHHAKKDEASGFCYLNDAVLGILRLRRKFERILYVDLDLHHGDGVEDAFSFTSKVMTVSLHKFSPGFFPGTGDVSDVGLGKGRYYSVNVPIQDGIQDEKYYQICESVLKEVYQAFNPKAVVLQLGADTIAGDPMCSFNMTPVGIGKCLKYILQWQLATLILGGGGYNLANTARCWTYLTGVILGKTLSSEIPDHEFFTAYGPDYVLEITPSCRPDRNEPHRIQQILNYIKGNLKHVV

[3] = molecular target: T3, HDAC11 (Homo sapiens, UniProt Q96DB2); assay: HDAC EMSA activity assay (Nanosyn); assay type: biochemical; conditions: recombinant enzyme, read-out: In vitro IC50 HDAC11
T3 construct: The full-length human HDACs were recombinantly expressed and purified from SF9 insect cells; host or cells: SF9 insect cells
T3 sequence (Q96DB2 1-347): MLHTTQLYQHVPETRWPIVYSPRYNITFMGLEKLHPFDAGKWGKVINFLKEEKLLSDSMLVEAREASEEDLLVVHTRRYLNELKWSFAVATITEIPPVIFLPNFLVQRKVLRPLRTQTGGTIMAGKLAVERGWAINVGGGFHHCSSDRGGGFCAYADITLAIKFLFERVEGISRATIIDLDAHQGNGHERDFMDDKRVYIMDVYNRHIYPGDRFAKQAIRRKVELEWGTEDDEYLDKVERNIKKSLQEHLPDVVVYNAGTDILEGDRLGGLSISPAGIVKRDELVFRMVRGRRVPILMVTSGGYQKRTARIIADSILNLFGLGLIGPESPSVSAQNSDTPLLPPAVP

[4] = tested on: MRC-9; assay: Cytotoxicity assay (Cell Titer-Blue, 72 h); assay type: cell-based
[5] = molecular target: T4, HDAC6 (Homo sapiens, UniProt Q9UBN7); assay: HDAC EMSA activity assay (Nanosyn); assay type: biochemical; parameters: The full-length human HDACs were recombinantly expressed and purified from SF9 insect cells; host or cells: SF9 insect cells; conditions: for IC50: EMSA (Nanosyn); for HDAC6 fold-selectivity: over the next closest HDAC isoform tested, * = selectivity ≥ indicated value
T4 sequence (Q9UBN7 1-1215): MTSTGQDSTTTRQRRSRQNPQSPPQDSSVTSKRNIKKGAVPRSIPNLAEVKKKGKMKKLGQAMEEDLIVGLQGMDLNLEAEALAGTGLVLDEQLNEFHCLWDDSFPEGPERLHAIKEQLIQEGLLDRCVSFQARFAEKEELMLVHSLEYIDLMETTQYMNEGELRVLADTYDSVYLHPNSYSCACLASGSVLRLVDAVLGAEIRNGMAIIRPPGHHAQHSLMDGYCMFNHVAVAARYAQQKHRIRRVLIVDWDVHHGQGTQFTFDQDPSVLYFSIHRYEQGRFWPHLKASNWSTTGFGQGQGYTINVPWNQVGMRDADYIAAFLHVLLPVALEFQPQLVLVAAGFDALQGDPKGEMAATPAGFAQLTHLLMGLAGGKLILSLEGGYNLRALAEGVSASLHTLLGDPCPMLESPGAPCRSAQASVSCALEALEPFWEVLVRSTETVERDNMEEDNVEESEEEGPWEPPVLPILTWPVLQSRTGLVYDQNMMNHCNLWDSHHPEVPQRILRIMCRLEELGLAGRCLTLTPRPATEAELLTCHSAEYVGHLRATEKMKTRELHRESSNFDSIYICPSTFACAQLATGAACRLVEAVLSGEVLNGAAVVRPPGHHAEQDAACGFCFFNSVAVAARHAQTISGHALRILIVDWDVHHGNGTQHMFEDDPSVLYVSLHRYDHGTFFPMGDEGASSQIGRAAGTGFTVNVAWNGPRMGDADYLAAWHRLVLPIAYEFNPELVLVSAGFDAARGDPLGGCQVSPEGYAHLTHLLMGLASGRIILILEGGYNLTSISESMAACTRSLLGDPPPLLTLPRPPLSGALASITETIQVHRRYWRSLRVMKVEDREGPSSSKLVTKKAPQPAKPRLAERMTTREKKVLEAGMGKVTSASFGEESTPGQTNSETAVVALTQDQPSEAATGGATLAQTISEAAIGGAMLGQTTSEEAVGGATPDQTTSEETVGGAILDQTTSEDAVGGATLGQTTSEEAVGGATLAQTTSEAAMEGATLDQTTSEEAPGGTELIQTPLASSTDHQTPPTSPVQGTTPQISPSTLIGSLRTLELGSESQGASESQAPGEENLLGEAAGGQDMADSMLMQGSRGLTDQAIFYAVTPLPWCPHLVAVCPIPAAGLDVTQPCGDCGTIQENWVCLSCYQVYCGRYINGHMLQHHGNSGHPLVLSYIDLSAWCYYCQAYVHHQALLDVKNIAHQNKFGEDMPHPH

[6] = Glutathione stability / reactivity assay; assay type: in vitro ADME; conditions: GSH adduct formation by LC/MS/MS; KT-531 up to 24 h
Description: Although covalent modification of HDAC6 was not observed (Figure S2), the PFBS group is susceptible to nucleophilic aromatic substitution by biological nucleophiles. A previously described high-throughput in vitro glutathione-reactivity assay was conducted, where compounds were incubated in the presence of glutathione (GSH) and the formation of a GSH-compound adduct was monitored over time via LC/MS/MS.[50]
Compound was added to PBS and 5 mM GSH to reach a final concentration of 5 μM. […] Samples were vortexed and centrifuged for 45 min at 3220g. Aliquots were diluted by ultrapure water, and used for LC/MS/MS analysis. Peak area ratios were determined and percent compounds remaining was calculated by the following equation: [drawing 1] where peak area ratio (t min) is the peak area ratio of control and test compounds at t min; peak area ratio0min is the peak area ratio of control and test compounds at the zero time point. In vitro half-life (t1/2) = −(0.693/k).

[7] = tested on: MV4-11; assay: Cytotoxicity assay (Cell Titer-Blue, 72 h); assay type: cell-based; conditions: for IC50: Homo sapiens
[8] = MRC9, MRC-9 (healthy fibroblasts), read-out: In cellulo IC50 MRC-9
[9] = recombinant enzyme, read-out: In vitro IC50 HDAC6
[10] = MV4-11 (AML), read-out: In cellulo IC50 MV4-11

T1 sequence (O15379 whole entry): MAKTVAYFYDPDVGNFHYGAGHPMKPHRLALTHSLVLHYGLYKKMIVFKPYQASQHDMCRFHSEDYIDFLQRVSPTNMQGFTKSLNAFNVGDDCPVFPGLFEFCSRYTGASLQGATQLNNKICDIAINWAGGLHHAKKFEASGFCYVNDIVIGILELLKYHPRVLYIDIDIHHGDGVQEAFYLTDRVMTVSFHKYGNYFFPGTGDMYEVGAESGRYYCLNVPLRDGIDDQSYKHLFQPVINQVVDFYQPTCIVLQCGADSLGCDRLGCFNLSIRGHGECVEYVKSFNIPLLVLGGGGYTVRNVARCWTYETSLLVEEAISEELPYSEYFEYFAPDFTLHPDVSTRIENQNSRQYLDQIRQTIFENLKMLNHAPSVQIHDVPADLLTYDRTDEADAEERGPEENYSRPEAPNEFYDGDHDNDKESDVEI
T1 sequence (Q9Y618 395-489 partner limits assumed): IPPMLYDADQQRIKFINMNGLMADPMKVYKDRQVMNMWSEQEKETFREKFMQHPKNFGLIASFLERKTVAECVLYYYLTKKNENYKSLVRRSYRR

Structure (SMILES) | IC50 [1] | IC50 [2] | IC50 [3] | IC50 [4, 8] | IC50 ([5]; read-out: IC50 HDAC6) | reactivity with glutathione [6] | IC50 [5, 9] | IC50 [7, 10] | HDAC6 fold-selectivity [5] | selectivity toward HDAC8 [2] | activity in MV4-11 cells [7] | activity in MRC9 cells [4] | IC50 ([7]; MV4-11, read-out: In cellulo IC50 MV4-11) | IC50 ([4]; MRC9, read-out: In cellulo IC50 MRC-9)
O=C(NO)c1ccc(CNS(=O)(=O)c2c(F)c(F)c(F)c(F)c2F)cc1 [Compound 2, N-Hydroxy-4-(((perfluorophenyl)sulfonamido)methyl)benzamide] | > 1000 nM | > 1000 nM | > 1000 nM | > 25000 nM | 389 nM | – | – | – | – | – | – | – | – | –
CN(Cc1ccc(C(=O)NO)cc1)S(=O)(=O)c1c(F)c(F)c(F)c(F)c1F [Compound 3, N-Hydroxy-4-(((2,3,4,5,6-pentafluoro-N-methylphenyl)sulfonamido)methyl)benzamide] | – | 184 nM | 246 nM | > 30000 nM | – | react readily with glutathione | 2 nM | – | – | – | – | – | – | –
CC(C)N(Cc1ccc(C(=O)NO)cc1)S(=O)(=O)c1c(F)c(F)c(F)c(F)c1F [Compound 4, N-Hydroxy-4-(((2,3,4,5,6-pentafluoro-N-isopropylphenyl)sulfonamido)methyl)benzamide] | 932 nM | 653 nM | 941 nM | > 10000 nM | – | react readily with glutathione | 4 nM | – | – | – | – | – | – | –
O=C(NO)c1ccc(CN(C2CC2)S(=O)(=O)c2ccc(F)cc2)cc1 [Compound 7, 4-(((N-Cyclopropyl-4-fluorophenyl)sulfonamido)methyl)-N-hydroxybenzamide] | 841 nM | 281 nM | > 1000 nM | > 50000 nM | – | – | 11 nM | 8690 nM | 25.5 fold | – | – | – | – | –
O=C(NO)c1ccc(CN(C2CC2)S(=O)(=O)c2cc(F)c(F)c(F)c2)cc1 [Compound 8, 4-(((N-Cyclopropyl-3,4,5-trifluorophenyl)sulfonamido)methyl)-N-hydroxybenzamide] | > 1000 nM | 273 nM | > 1000 nM | > 25000 nM | – | – | 14 nM | 5980 nM | 20 fold and 19.5 fold | – | – | – | – | –
O=C(NO)c1ccc(CN(C2CC2)S(=O)(=O)c2c(F)cc(F)cc2F)cc1 [Compound 9, 4-(((N-Cyclopropyl-2,4,6-trifluorophenyl)sulfonamido)methyl)-N-hydroxybenzamide] | > 1000 nM | 315 nM | > 1000 nM | > 20000 nM | – | – | 8 nM | 8940 nM | 39.4 fold | – | – | – | – | –
O=C(NO)c1cccc(CN(C2CC2)S(=O)(=O)c2c(F)c(F)c(F)c(F)c2F)c1 [Compound 10, 3-(((N-Cyclopropyl-2,3,4,5,6-pentafluorophenyl)sulfonamido)methyl)-N-hydroxybenzamide] | > 1000 nM | 108 nM | > 1000 nM | > 50000 nM | – | – | 488 nM | 1900 nM | – | 4 fold | – | – | – | –
O=C(NO)c1ccc(CN(C2CC2)S(=O)(=O)c2c(F)c(Cl)c(F)c(Cl)c2F)cc1 [Compound 11, 4-(((3,5-Dichloro-N-cyclopropyl-2,4,6-trifluorophenyl)sulfonamido)methyl)-N-hydroxybenzamide] | > 1000 nM | 214 nM | 364 nM | > 50000 nM | – | – | 15 nM | 670 nM | 14.3 fold | – | – | – | – | –
O=C(NO)c1ccc(CN(C2CC2)S(=O)(=O)c2c(F)cc(F)c(Cl)c2F)cc1 [Compound 12, 4-(((3-Chloro-N-cyclopropyl-2,4,6-trifluorophenyl)sulfonamido)methyl)-N-hydroxybenzamide] | > 1000 nM | 201 nM | > 1000 nM | > 20000 nM | – | – | 9 nM | 740 nM | 22.3 fold | – | – | – | – | –
O=C(NO)c1ccc(CN(C2CC2)S(=O)(=O)c2c(F)c(F)c(Cl)c(F)c2F)cc1 [Compound 13, 4-(((4-Chloro-N-cyclopropyl-2,3,5,6-tetrafluorophenyl)sulfonamido)methyl)-N-hydroxybenzamide] | > 1000 nM | > 1000 nM | > 1000 nM | > 30000 nM | 70 nM | – | – | 1380 nM | 14.3 fold and ≥ 14.3* fold | – | – | – | – | –
CCCCN(Cc1ccc(C(=O)NO)cc1)C(=O)Nc1ccccc1 [Nexturastat, reference compound] | – | – | – | – | – | – | – | 1680 nM | – | – | – | – | – | –
COc1ccc(Cn2ccc3ccc(C(=O)NO)cc32)cc1 [PCI-34051, reference compound] | – | – | – | – | – | – | – | – | – | – | no observable activity | no observable activity | – | –
O=C(CCCCCCNC(=O)c1cnc(N(c2ccccc2)c2ccccc2)nc1)NO [Ricolinostat, reference compound] | – | – | – | – | – | – | – | – | – | – | – | – | 810 nM | > 20000 nM
